In BindingDB's records for doi:10.1016/j.bmcl.2003.09.069 (Sugen, 2003) one finds IC50 data, which are given here for 14 compounds.

The nature of the experiment: Inhibitory activity against cellular Src protein tyrosine kinase using the actin ring assay.

Structures are written as SMILES.

In turn, `CNS(=O)(=O)c1ccc2c(c1)/C(=C/c1[nH]c3c(c1CN1CCOCC1)CCCC3)C(=O)N2` [3-[1-(3-Morpholin-4-ylmethyl-4,5,6,7-tetrahydro-1H-indol-2-yl)-meth-(Z)-ylidene]-2-oxo-2,3-dihydro-1H-indole-5-sulfonic acid methylamide] came in with an IC50 of 1000 nM.

With `CNS(=O)(=O)c1ccc2c(c1)/C(=C/c1[nH]c3c(c1CCCN1CCN(CCO)CC1)CCCC3)C(=O)N2` [3-[1-(3-{3-[4-(2-Hydroxy-ethyl)-piperazin-1-yl]-propyl}-4,5,6,7-tetrahydro-1H-indol-2-yl)-meth-(Z)-ylidene]-2-oxo-2,3-dihydro-1H-indole-5-sulfonic acid methylamide], half-maximal inhibition (IC50) was put at 3000 nM.

`CCS(=O)(=O)c1ccc2c(c1)/C(=C/c1[nH]c3c(c1CCCN(C)C)CCCC3)C(=O)N2` [3-[1-[3-(3-Dimethylamino-propyl)-4,5,6,7-tetrahydro-1H-indol-2-yl]-meth-(Z)-ylidene]-5-ethanesulfonyl-1,3-dihydro-indol-2-one] showed an IC50 of 500 nM.

In turn, `CNS(=O)(=O)c1ccc2c(c1)/C(=C/c1[nH]c3c(c1CCCN1CCOCC1)CCCC3)C(=O)N2` [3-[1-[3-(3-Morpholin-4-yl-propyl)-4,5,6,7-tetrahydro-1H-indol-2-yl]-meth-(Z)-ylidene]-2-oxo-2,3-dihydro-1H-indole-5-sulfonic acid methylamide] had an IC50 of 100 nM.

As for `CNS(=O)(=O)c1ccc2c(c1)/C(=C/c1[nH]c3c(c1CCCN1CCC(O)CC1)CCCC3)C(=O)N2` [3-[1-{3-[3-(4-Hydroxy-piperidin-1-yl)-propyl]-4,5,6,7-tetrahydro-1H-indol-2-yl}-meth-(Z)-ylidene]-2-oxo-2,3-dihydro-1H-indole-5-sulfonic acid methylamide], half-maximal inhibition (IC50) required 900 nM.

`CNS(=O)(=O)c1ccc2c(c1)/C(=C/c1[nH]c3c(c1CCCN1CCN(C)CC1)CCCC3)C(=O)N2` [3-[1-{3-[3-(4-Methyl-piperazin-1-yl)-propyl]-4,5,6,7-tetrahydro-1H-indol-2-yl}-meth-(Z)-ylidene]-2-oxo-2,3-dihydro-1H-indole-5-sulfonic acid methylamide] came in with an IC50 of 100 nM.

`CCS(=O)(=O)c1ccc2c(c1)/C(=C/c1[nH]c3c(c1CCC(N)=O)CCCC3)C(=O)N2` [3-{2-[5-Ethanesulfonyl-2-oxo-1,2-dihydro-indol-(3Z)-ylidenemethyl]-4,5,6,7-tetrahydro-1H-indol-3-yl}-propionamide]: the IC50 is above 10000 nM.

`CNS(=O)(=O)c1ccc2c(c1)/C(=C/c1[nH]c3c(c1CCC(N)=O)CCCC3)C(=O)N2` [3-{2-[5-Methylsulfamoyl-2-oxo-1,2-dihydro-indol-(3Z)-ylidenemethyl]-4,5,6,7-tetrahydro-1H-indol-3-yl}-propionamide] showed an IC50 above 10000 nM.

Consider `CCS(=O)(=O)c1ccc2c(c1)/C(=C/c1[nH]c3c(c1CN1CCOCC1)CCCC3)C(=O)N2` [5-Ethanesulfonyl-3-[1-(3-morpholin-4-ylmethyl-4,5,6,7-tetrahydro-1H-indol-2-yl)-meth-(Z)-ylidene]-1,3-dihydro-indol-2-one], for which half-maximal inhibition (IC50) required 5000 nM.

The compound `CCS(=O)(=O)c1ccc2c(c1)/C(=C/c1[nH]c3c(c1CCCN1CCN(CCO)CC1)CCCC3)C(=O)N2` [5-Ethanesulfonyl-3-[1-(3-{3-[4-(2-hydroxy-ethyl)-piperazin-1-yl]-propyl}-4,5,6,7-tetrahydro-1H-indol-2-yl)-meth-(Z)-ylidene]-1,3-dihydro-indol-2-one] came in with an IC50 of 1700 nM. This IC50 lies about 2.9-fold lower than the previous one.

`CCS(=O)(=O)c1ccc2c(c1)/C(=C/c1[nH]c3c(c1CCCN1CCC(O)CC1)CCCC3)C(=O)N2` [5-Ethanesulfonyl-3-[1-{3-[3-(4-hydroxy-piperidin-1-yl)-propyl]-4,5,6,7-tetrahydro-1H-indol-2-yl}-meth-(Z)-ylidene]-1,3-dihydro-indol-2-one]: it took 800 nM to reach half-maximal inhibition (IC50). Compared with the last compound, the IC50 is about 2.1-fold lower.

The compound `CCS(=O)(=O)c1ccc2c(c1)/C(=C/c1[nH]c3c(c1CCCN1CCN(CC(=O)O)CC1)CCCC3)C(=O)N2` [[4-(3-{2-[5-Ethanesulfonyl-2-oxo-1,2-dihydro-indol-(3Z)-ylidenemethyl]-4,5,6,7-tetrahydro-1H-indol-3-yl}-propyl)-piperazin-1-yl]-acetic acid] displayed an IC50 of 10000 nM.

`CCOC(=O)CN1CCN(CCCc2c(/C=C3\C(=O)Nc4ccc(S(=O)(=O)NC)cc43)[nH]c3c2CCCC3)CC1` [[4-(3-{2-[5-Methylsulfamoyl-2-oxo-1,2-dihydro-indol-(3Z)-ylidenemethyl]-4,5,6,7-tetrahydro-1H-indol-3-yl}-propyl)-piperazin-1-yl]-acetic acid ethyl ester] showed an IC50 of 900 nM.

`CNS(=O)(=O)c1ccc2c(c1)/C(=C/c1[nH]c3c(c1CCCN1CCN(CC(=O)O)CC1)CCCC3)C(=O)N2` [[4-(3-{2-[5-Methylsulfamoyl-2-oxo-1,2-dihydro-indol-(3Z)-ylidenemethyl]-4,5,6,7-tetrahydro-1H-indol-3-yl}-propyl)-piperazin-1-yl]-acetic acid] yielded an IC50 above 10000 nM.

What is called IC50 is the concentration at which inhibition is half-maximal. Higher therefore signals lower potency.
